Test results reported in patent publication US20100311714A1, “1H-IMIDAZO[4,5-c]QUINOLINONE COMPOUNDS” (priority 2009, published 2010).
Read-outs that look alike come from different tables or passages of the source.

What was measured:
[1] = target: T1, mTOR (Homo sapiens, UniProt P42345); assay: Biochemical assay for m-TOR by TR-FRET
T1 construct: purchased Invitrogen Corporation (Carlsbad/Calif., USA) PV4753
How it was run: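 mTOR (0.5 nM) phosphorylates GFP-4EBP1 (400 nM) with 8 μM ATP at rt in 50 mM HEPES pH 7.5, 10 mM MnCl2, 50 mM NaCl, 1 mM EGTA, 1 mM DTT; compounds 0.003–10 μM final. EDTA stop with Tb-anti-p4EBP1[pT46] antibody (0.5 nM); TR-FRET read after 15 min against no-enzyme and vehicle controls.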

[2] = target: T2, PI3K beta (Homo sapiens, UniProt P42338); assay: PI3K beta kinase assay (Kinase-Glo luminescence); type: biochemical
T2 construct: for the full-length p110-b subunit are generated and fused by overlapping PCR; His tag (C); made in house; host or cells: baculovirus BV949; Tn5 (Trichoplusia ni) or TiniPro insect cells
How it was run: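 Kinase-Glo luminescence read out ATP left after a 60-min room-temperature reaction, started with ATP (1 μM final) on 25 nM His-tagged p85 iSH2–p110β (BV949) plus 10 μg/mL PI substrate in pH 7.5 Tris buffer. Percent inhibition at eight concentrations was fitted to a four-parameter logistic model for IC50.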

[3] = Parallel Artificial Membrane Permeability Assay (PAMPA) at pH 6.8; type: physicochemical
How it was run: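 Reported as log Pe, membrane permeability was determined by parallel artificial membrane assay at pH 6.8 per Wohnsland–Faller.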

T2 sequence (P42338 with tags, fused parts or gaps limits assumed): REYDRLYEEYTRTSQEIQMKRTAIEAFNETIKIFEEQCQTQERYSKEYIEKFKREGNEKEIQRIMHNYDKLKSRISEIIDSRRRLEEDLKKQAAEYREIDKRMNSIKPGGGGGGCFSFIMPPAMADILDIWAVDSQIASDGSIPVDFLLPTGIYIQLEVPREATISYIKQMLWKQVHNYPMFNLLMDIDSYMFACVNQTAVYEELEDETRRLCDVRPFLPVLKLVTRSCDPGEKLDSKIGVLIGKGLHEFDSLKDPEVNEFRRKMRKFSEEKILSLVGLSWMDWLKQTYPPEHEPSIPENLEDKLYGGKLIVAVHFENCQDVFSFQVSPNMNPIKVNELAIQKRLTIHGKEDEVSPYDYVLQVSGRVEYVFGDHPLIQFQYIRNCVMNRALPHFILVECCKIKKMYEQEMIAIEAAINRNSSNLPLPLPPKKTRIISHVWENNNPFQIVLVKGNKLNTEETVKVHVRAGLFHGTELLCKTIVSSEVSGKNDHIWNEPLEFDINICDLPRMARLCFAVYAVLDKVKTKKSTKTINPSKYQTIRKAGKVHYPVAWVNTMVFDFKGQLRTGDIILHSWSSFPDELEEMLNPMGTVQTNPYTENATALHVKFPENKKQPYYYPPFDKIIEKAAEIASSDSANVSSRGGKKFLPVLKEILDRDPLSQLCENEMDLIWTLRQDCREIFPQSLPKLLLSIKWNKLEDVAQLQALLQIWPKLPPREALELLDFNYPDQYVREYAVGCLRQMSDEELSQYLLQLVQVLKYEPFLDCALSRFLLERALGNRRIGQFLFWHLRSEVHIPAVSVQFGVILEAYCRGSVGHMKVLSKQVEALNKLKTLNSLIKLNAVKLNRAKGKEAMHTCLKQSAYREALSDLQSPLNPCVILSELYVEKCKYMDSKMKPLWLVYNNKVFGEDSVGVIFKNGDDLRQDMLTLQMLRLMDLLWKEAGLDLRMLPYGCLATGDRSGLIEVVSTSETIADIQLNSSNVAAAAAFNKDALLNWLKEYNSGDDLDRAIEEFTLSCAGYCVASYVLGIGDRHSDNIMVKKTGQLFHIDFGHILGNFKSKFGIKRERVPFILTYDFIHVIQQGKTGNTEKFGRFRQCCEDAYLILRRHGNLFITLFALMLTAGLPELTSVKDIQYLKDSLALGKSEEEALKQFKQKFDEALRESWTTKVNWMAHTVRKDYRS
T1 sequence (P42345 1360-2549 limits assumed): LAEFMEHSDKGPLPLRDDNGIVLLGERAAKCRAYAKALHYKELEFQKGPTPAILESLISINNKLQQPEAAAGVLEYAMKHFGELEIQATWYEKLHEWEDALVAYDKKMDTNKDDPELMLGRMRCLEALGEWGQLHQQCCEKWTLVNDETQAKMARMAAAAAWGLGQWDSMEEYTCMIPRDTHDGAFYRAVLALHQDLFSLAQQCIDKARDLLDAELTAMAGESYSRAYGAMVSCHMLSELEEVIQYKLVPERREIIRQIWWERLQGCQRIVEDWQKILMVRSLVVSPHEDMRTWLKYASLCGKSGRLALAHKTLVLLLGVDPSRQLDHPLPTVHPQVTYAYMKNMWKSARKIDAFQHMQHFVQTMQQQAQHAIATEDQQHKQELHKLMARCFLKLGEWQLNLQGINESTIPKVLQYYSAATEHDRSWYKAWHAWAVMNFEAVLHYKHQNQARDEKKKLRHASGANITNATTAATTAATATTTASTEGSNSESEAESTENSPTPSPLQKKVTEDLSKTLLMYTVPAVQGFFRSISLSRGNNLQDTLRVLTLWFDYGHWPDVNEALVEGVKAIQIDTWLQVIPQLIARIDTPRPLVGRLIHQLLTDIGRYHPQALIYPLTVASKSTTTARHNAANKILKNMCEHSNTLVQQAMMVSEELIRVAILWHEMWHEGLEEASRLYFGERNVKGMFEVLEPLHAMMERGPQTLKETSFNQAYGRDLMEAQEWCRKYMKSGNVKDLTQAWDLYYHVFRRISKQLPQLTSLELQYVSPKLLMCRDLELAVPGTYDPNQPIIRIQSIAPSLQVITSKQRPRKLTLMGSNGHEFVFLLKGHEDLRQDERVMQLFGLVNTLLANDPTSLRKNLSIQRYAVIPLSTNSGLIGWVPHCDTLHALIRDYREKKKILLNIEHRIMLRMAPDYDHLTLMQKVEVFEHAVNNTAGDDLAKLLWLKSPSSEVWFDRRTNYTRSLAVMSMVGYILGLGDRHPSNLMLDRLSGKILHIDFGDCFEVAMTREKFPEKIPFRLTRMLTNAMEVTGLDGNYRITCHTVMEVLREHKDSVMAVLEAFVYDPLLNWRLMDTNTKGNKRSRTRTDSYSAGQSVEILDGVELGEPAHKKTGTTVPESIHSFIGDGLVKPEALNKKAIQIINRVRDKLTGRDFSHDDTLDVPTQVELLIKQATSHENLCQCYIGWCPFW

| SMILES | IC50 ([1]; read-out: EPK_mTOR/IC50) | IC50 ([2]; read-out: EPK_PI3Kbeta/IC50) | HT-Perm logPe pH6.8 [3] | IC50 ([1]; read-out: mTOR/IC50) | IC50 ([2]; read-out: PI3Kbeta/IC50) | HT-perm/logPe pH6.8 [3] |
| --- | --- | --- | --- | --- | --- | --- |
| CNC(=O)c1cc(-c2ccc3ncc4c(c3c2)n(-c2ccc(F)nc2C)c(=O)n4C)cnc1N [Example 7.14, 2-Amino-5-[1-(6-fluoro-2-methyl-pyridin-3-yl)-3-methyl-2-oxo-2,3-dihydro-1H-imidazo[4,5-c]quinolin-8-yl]-N-methyl-nicotinamide] | 251 nM | 14 nM | −5.9 | – | – | – |
| Cc1nc(N2CC(F)(F)C(F)(F)C2)ccc1-n1c(=O)n(C)c2cnc3ccc(-c4cncc(C(C)(C)O)c4)cc3c21 [Example 35.1, 8-[5-(1-Hydroxy-1-methyl-ethyl)-pyridin-3-yl]-3-methyl-1-[2-methyl-6-(3,3,4,4-tetrafluoro-pyrrolidin-1-yl)-pyridin-3-yl]-1,3-dihydro-imidazo[4,5-c]quinolin-2-one] | 68 nM | 34 nM | −4.3 | – | – | – |
| CCNc1cc(-c2ccc3ncc4c(c3c2)n(-c2ccc(N(C)CC)nc2C)c(=O)n4C)cnc1C [Example 12.2, 8-(5-Ethylamino-6-methyl-pyridin-3-yl)-1-[6-(ethyl-methyl-amino)-2-methyl-pyridin-3-yl]-3-methyl-1,3-dihydro-imidazo[4,5-c]quinolin-2-one] | 7 nM | 49 nM | −4 | – | – | – |
| COCCN(C)c1ccc(-n2c(=O)n(C)c3cnc4ccc(-c5cnc(N(C)C)nc5)cc4c32)c(C)n1 [Example 15.5, 8-(2-Dimethylamino-pyrimidin-5-yl)-1-{6-[(2-methoxy-ethyl)-methyl-amino]-2-methyl-pyridin-3-yl}-3-methyl-1,3-dihydro-imidazo[4,5-c]quinolin-2-one] | 71 nM | 448 nM | −3.7 | – | – | – |
| CNc1ccc(-c2ccc3ncc4c(c3c2)n(-c2cnc(F)cc2C)c(=O)n4C)cn1 [Example 16.4, 1-(6-Fluoro-4-methyl-pyridin-3-yl)-3-methyl-8-(6-methylamino-pyridin-3-yl)-1,3-dihydro-imidazo[4,5-c]quinolin-2-one] | 704 nM | 1330 nM | −4.2 | – | – | – |
| COCc1ncc(-c2ccc3ncc4c(c3c2)n(-c2ccc(OC)nc2OC)c(=O)n4C)cc1OC [Example 8.12, 1-(2,6-Dimethoxy-pyridin-3-yl)-8-(5-methoxy-6-methoxymethyl-pyridin-3-yl)-3-methyl-1,3-dihydro-imidazo[4,5-c]quinolin-2-one] | 17 nM | 212 nM | −4 | – | – | – |
| CNc1ccc(-c2ccc3ncc4c(c3c2)n(-c2cccnc2OC)c(=O)n4C)cn1 [Example 1.4, 1-(2-Methoxy-pyridin-3-yl)-3-methyl-8-(6-methylamino-pyridin-3-yl)-1,3-dihydro-imidazo[4,5-c]quinolin-2-one] | – | – | – | 25 nM | 374 nM | −3.9 |
| CNc1ncc(-c2ccc3ncc4c(c3c2)n(-c2ccc(OCCOC)nc2C)c(=O)n4C)cn1 [Example 13.5, 1-[6-(2-Methoxy-ethoxy)-2-methyl-pyridin-3-yl]-3-methyl-8-(2-methylamino-pyrimidin-5-yl)-1,3-dihydro-imidazo[4,5-c]quinolin-2-one] | 39 nM | 658 nM | −4.3 | – | – | – |
| COc1ccc(-c2ccc3ncc4c(c3c2)n(-c2cccnc2)c(=O)n4C)cn1 [Example 5.4, 8-(6-Methoxy-pyridin-3-yl)-3-methyl-1-pyridin-3-yl-1,3-dihydro-imidazo[4,5-c]quinolin-2-one] | – | – | – | 115 nM | 263 nM | −3.7 |
| CNc1ncc(-c2ccc3ncc4c(c3c2)n(-c2cccnc2C)c(=O)n4C)cn1 [Example 2.2, 3-Methyl-8-(2-methylamino-pyrimidin-5-yl)-1-(2-methyl-pyridin-3-yl)-1,3-dihydro-imidazo[4,5-c]quinolin-2-one] | – | – | – | 8 nM | 165 nM | −4.7 |
| COc1ncccc1-n1c(=O)n(C)c2cnc3ccc(-c4cnc(N)c(C(F)(F)F)c4)cc3c21 [Example 1.3, 8-(6-Amino-5-trifluoromethyl-pyridin-3-yl)-1-(2-methoxy-pyridin-3-yl)-3-methyl-1,3-dihydro-imidazo[4,5-c]quinolin-2-one] | – | – | – | 9 nM | 23 nM | −3.8 |
| CCNc1cc(-c2ccc3ncc4c(c3c2)n(-c2ccc(OC)nc2C)c(=O)n4C)cnc1C [Example 11.7, 8-(5-Ethylamino-6-methyl-pyridin-3-yl)-1-(6-methoxy-2-methyl-pyridin-3-yl)-3-methyl-1,3-dihydro-imidazo[4,5-c]quinolin-2-one] | 3 nM | 6 nM | −3.7 | – | – | – |
| CCNc1cc(-c2ccc3ncc4c(c3c2)n(-c2ccc(OC)nc2Cl)c(=O)n4C)cnc1C [Example 18.1, 1-(2-Chloro-6-methoxy-pyridin-3-yl)-8-(5-ethylamino-6-methyl-pyridin-3-yl)-3-methyl-1,3-dihydro-imidazo[4,5-c]quinolin-2-one] | 13 nM | 41 nM | −3.6 | – | – | – |
| COCCN(C)c1ccc(-n2c(=O)n(C)c3cnc4ccc(-c5cnc6c(ccn6C)c5)cc4c32)c(C)n1 [Example 15.7, 1-{6-[(2-Methoxy-ethyl)-methyl-amino]-2-methyl-pyridin-3-yl}-3-methyl-8-(1-methyl-1H-pyrrolo[2,3-b]pyridin-5-yl)-1,3-dihydro-imidazo[4,5-c]quinolin-2-one] | 75 nM | 279 nM | −3.9 | – | – | – |
| COCCN(C)c1ccc(-n2c(=O)n(C)c3cnc4ccc(-c5cncc(N)c5)cc4c32)c(C)n1 [Example 15.8, 8-(5-Amino-pyridin-3-yl)-1-{6-[(2-methoxy-ethyl)-methyl-amino]-2-methyl-pyridin-3-yl}-3-methyl-1,3-dihydro-imidazo[4,5-c]quinolin-2-one] | 11 nM | 98 nM | −5.1 | – | – | – |
| CCOc1ccc(-c2ccc3ncc4c(c3c2)n(-c2ccc(N(C)CCOC)nc2C)c(=O)n4C)cn1 [Example 15.3, 8-(6-Ethoxy-pyridin-3-yl)-1-{6-[(2-methoxy-ethyl)-methyl-amino]-2-methyl-pyridin-3-yl}-3-methyl-1,3-dihydro-imidazo[4,5-c]quinolin-2-one] | 120 nM | 793 nM | −3.8 | – | – | – |
| COCCOc1cc(-c2ccc3ncc4c(c3c2)n(-c2ccc(OC)nc2OC)c(=O)n4C)cnc1C [Example 8.9, 1-(2,6-Dimethoxy-pyridin-3-yl)-8-[5-(2-methoxy-ethoxy)-6-methyl-pyridin-3-yl]-3-methyl-1,3-dihydro-imidazo[4,5-c]quinolin-2-one] | 10 nM | 43 nM | −3.9 | – | – | – |
| CCOc1ccc(-c2ccc3ncc4c(c3c2)n(-c2cncc(C)c2)c(=O)n4C)cn1 [Example 17.1, 8-(6-Ethoxy-pyridin-3-yl)-3-methyl-1-(5-methyl-pyridin-3-yl)-1,3-dihydro-imidazo[4,5-c]quinolin-2-one] | 484 nM | 3950 nM | −4.5 | – | – | – |
| CNc1ccc(-c2ccc3ncc4c(c3c2)n(-c2ccc(N(C)CCOC)nc2C)c(=O)n4C)cn1 [Example 15.4, 1-{6-[(2-Methoxy-ethyl)-methyl-amino]-2-methyl-pyridin-3-yl}-3-methyl-8-(6-methylamino-pyridin-3-yl)-1,3-dihydro-imidazo[4,5-c]quinolin-2-one] | 11 nM | 407 nM | −3.7 | – | – | – |
| CCOc1ccc(-c2ccc3ncc4c(c3c2)n(-c2cccnc2OC)c(=O)n4C)cn1 [Example 1.5, 8-(6-Ethoxy-pyridin-3-yl)-1-(2-methoxy-pyridin-3-yl)-3-methyl-1,3-dihydro-imidazo[4,5-c]quinolin-2-one] | – | – | – | 107 nM | 505 nM | −3.6 |
| Cc1ccc(-n2c(=O)n(C)c3cnc4ccc(-c5cnc6c(ccn6C)c5)cc4c32)c(C)n1 [Example 14.7, 1-(2,6-Dimethyl-pyridin-3-yl)-3-methyl-8-(1-methyl-1H-pyrrolo[2,3-b]pyridin-5-yl)-1,3-dihydro-imidazo[4,5-c]quinolin-2-one] | 13 nM | 1100 nM | −4.3 | – | – | – |
| CNc1ccc(-c2ccc3ncc4c(c3c2)n(-c2ccc(N3CCCC3)nc2C)c(=O)n4C)cn1 [Example 25.1, 3-Methyl-8-(6-methylamino-pyridin-3-yl)-1-(2-methyl-6-pyrrolidin-1-yl-pyridin-3-yl)-1,3-dihydro-imidazo[4,5-c]quinolin-2-one] | 34 nM | 1520 nM | −3.9 | – | – | – |
| CCOc1ccc(-c2ccc3ncc4c(c3c2)n(-c2cccnc2C)c(=O)n4C)cn1 [Example 2.1, 8-(6-Ethoxy-pyridin-3-yl)-3-methyl-1-(2-methyl-pyridin-3-yl)-1,3-dihydro-imidazo[4,5-c]quinolin-2-one] | – | – | – | 42 nM | 580 nM | −3.7 |
| COc1ccc(-n2c(=O)n(C)c3cnc4ccc(-c5cnc(N(C)C)nc5)cc4c32)c(Cl)n1 [Example 18.3, 1-(2-Chloro-6-methoxy-pyridin-3-yl)-8-(2-dimethylamino-pyrimidin-5-yl)-3-methyl-1,3-dihydro-imidazo[4,5-c]quinolin-2-one] | 215 nM | 45 nM | −3.5 | – | – | – |
